Test results from paper PMC2929646 (Nutrition research (New York, N.Y.), 2010).
Like-named read-outs stand apart in the source and are kept apart here.

Experiments:
Caco-2 monolayers [1] = settings: cited from earlier work
Caco-2 monolayers [2] = settings: cited from earlier work; remark: listed apart in the source
Caco-2 cells [3] = settings: media containing 50 µM ECG; cited from earlier work
Caco-2 cells [4] = settings: cited from earlier work
[5] = test system: Caco-2 human intestinal cells (TC7 clone); assay: Accumulation of catechin monomers and auto-oxidation dimers by Caco-2 monolayers
[6] = Stability in cell-free experimental media; type: physicochemical; settings: cell-free media (pH 5 PBS), 37°C, media 5 (EGCG), media 2 (dimers), mean ± SEM, n=4
rat squalene epoxidase = settings: relative to EGCG; cited from earlier work
U937 cells = settings: cited from earlier work
[7] = test system: human histolytic lymphoma U937 cells; settings: cited from earlier work
lipase = settings: cited from earlier work
[8] = test system: fibrosarcoma HT1080 cells; settings: cited from earlier work
[9] = cited from earlier work
[10] = cited from earlier work; remark: listed apart in the source
[11] = test system: Caco-2 human intestinal cells; assay: Parallel accumulation and retention experiment in Caco-2 monolayers; type: in vitro ADME; settings: after 3 h accumulation, 1 h in catechin/dimer-free PBS; mean ± SEM, n=4

Oc1cc(O)c2c(c1)O[C@H](c1ccc(O)c(O)c1)[C@@H](O)C2 [(+)-C, (+)-catechin]
membrane adsorption (Caco-2 monolayers [1]): 0.15–0.2 % transmembrane resistance, Ω cm^2 | apparent apical → basolateral permeability (Caco-2 monolayers [2]): 0.8 ×10⁻⁶ cm/s

O=C(O[C@@H]1Cc2c(O)cc(O)cc2O[C@@H]1c1ccc(O)c(O)c1)c1cc(O)c(O)c(O)c1 [ECG, (−)-epicatechin gallate]
1 h accumulation (Caco-2 cells [3]): roughly 3 nmol/mg protein

Oc1cc(O)c2c(c1)O[C@H](c1cc(O)c(O)c(O)c1)[C@H](O)C2 [EGC, (−)-epigallocatechin]
3 h accumulation (Caco-2 cells [4]): 0.1–0.5 nmol/mg protein

O=C(O[C@@H]1Cc2c(O)cc(O)cc2O[C@@H]1c1cc(O)c(O)c(O)c1)c1cc(O)c(O)c(O)c1 [EGCG, (−)-epigallocatechin gallate]
net accumulation at 3 h (amount per mg protein) ([5]; 37°C, pH 5 PBS, media from EGCG + EGC (media 3, 6)): 1.89 ± 0.15 nmol/mg | Three h accumulation (range over monomer media) ([5]; 3 h, range over the media that contain the monomer): 1.24–1.35% | Stability over 3 h (percent of initial concentration) [6]: 91.8 ± 6.4% | 3 h accumulation (Caco-2 cells [4]; previously reported by the authors): 0.2–2.5 nmol/mg protein

O=C(O[C@@H]1Cc2c(O)cc(O)cc2O[C@@H]1c1cc(O)c(O)c(O)c1-c1c([C@H]2Oc3cc(O)cc(O)c3C[C@H]2OC(=O)c2cc(O)c(O)c(O)c2)cc(O)c(O)c1O)c1cc(O)c(O)c(O)c1 [THSN A]
IC50 value, fold lower than EGCG (rat squalene epoxidase): 5 × | inhibition of growth compared with EGCG (U937 cells): more effective at inhibiting the growth of U937 cells than EGCG | induction of apoptosis [7]: induced apoptosis | inhibition of lipase compared with EGCG (lipase): more effective inhibitor of lipase than EGCG

O=C(O[C@@H]1Cc2c(O)cc(O)cc2O[C@@H]1c1cc(O)c(O)c(O)c1-c1c([C@H]2Oc3cc(O)cc(O)c3C[C@H]2OC(=O)c2cc(O)c(O)c(O)c2)cc(O)c(O)c1O)c1cc(O)c(O)c(O)c1 [THSN D]
inhibition of invasive activity compared with EC, EGC and EGCG [8]: better inhibitor of the invasive activity of fibrosarcoma HT1080 cells than EC and EGC, but was less effective than EGCG | induction of apoptosis compared with EGCG [7]: more effective than EGCG

Oc1cc(O)c2c(c1)O[C@H](c1ccc(O)c(O)c1)[C@@H](O)[C@@H]2c1c(O)cc(O)c2c1O[C@H](c1ccc(O)c(O)c1)[C@@H](O)C2 [procyanidin dimer B3, (+)-C-(4α→8)-(+)-C]
apparent apical → basolateral permeability (Caco-2 monolayers [2]): 2 ×10⁻⁶ cm/s

theasinensins (THSNs) A/D [THSNs A/D]
Fe^2+ chelation activity compared with EGCG [9]: equal to or greater than EGCG | Stability over 3 h (percent of initial concentration) [6]: 100 ± 0.36% | O2^•− scavenging activity compared with EGCG [10]: equal to or greater than EGCG | 1 h Retention, Absolute [11]: 7.08 ± 2.2 pmol/well
